From patent US20250129430A1, “HIGH ATP-AFFINITY PROTEIN AS THERAPEUTIC TARGET FOR INTRACTABLE CANCER MOLECULAR SUBTYPES AND INHIBITOR THEREOF” (VeraVerse Co., Ltd., priority 2021, published 2025)

Experiments:
Assay in all cases: Cell viability drug screen, 12-point dose-response AUC
Format in all cases: cell-based, human
FU97 = system: FU97; set-up: Average Area Under the Viability Curve (AUC), AUC norm value: scale not given here; conditions: FU97 cells; 72 hours
Method in brief: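 Trapezoidal AUC of a 12-point, DMSO-normalized dose-response curve. Luminescent viability was measured after 72 h of exposure at 37° C to half-log serial dilutions (0.5% DMSO control), dosed 24 h after plating FU97 cells at 5×10^3 per well.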

MKN28 = MKN28 cells; 72 hours
Method in brief: (§1)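 AUC comes from 12-point half-log dose–response curves, normalized to DMSO-treated cells and integrated trapezoidally, repeats averaged. Luminescent viability read after 72 h compound exposure at 37 °C; cells plated 5×10^3 per well 24 h before dosing.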

NCC24 = NCC24 cells; 72 hours
Method in brief: as §1

NCI_N87 = NCI_N87 cells; 72 hours
Method in brief: as §1

SNU719 = SNU719 cells; 72 hours
Method in brief: (§2)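 Dose-response AUC reflects 72 h drug exposure of gastric cancer cells in a 12-point, half-log format, with viability read by luminescence and normalized to DMSO (0.5%).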

SNU638 = SNU638 cells; 72 hours
Method in brief: as §1

YCC2 = YCC2 cells; 72 hours
Method in brief: as §1

NCC20 = NCC20 cells; 72 hours
Method in brief: as §1

SNU16 = SNU16 cells; 72 hours
Method in brief: as §1

SNU216 = SNU216 cells (non-SEM subtype); 72 hours
Method in brief: as §2

SNU1750 = SNU1750 cells (SEM subtype); 72 hours
Method in brief: as §1

SNU601 = SNU601 cells; 72 hours
Method in brief: as §1

NCC59 = NCC59 cells; 72 hours
Method in brief: as §1

YCC3 = YCC3 cells; 72 hours
Method in brief: as §1

SNU620 = SNU620 cells; 72 hours
Method in brief: as §1

OCUM1 = OCUM1 cells; 72 hours
Method in brief: as §1

MKN74 = MKN74 cells; 72 hours
Method in brief: as §2

YCC11 = YCC11 cells (SEM subtype); 72 hours
Method in brief: as §1

SK4 = SK4 cells (SEM subtype); 72 hours
Method in brief: as §1

KATO3 = KATO3 cells; 72 hours
Method in brief: as §1

SNU1 = SNU1 cells; 72 hours
Method in brief: as §1

MKN45 = MKN45 cells (non-SEM subtype); 72 hours
Method in brief: as §2

AGS = AGS cells (non-SEM subtype); 72 hours
Method in brief: as §2

SNU668 = SNU668 cells (SEM subtype); 72 hours
Method in brief: as §1

SNU1967 = SNU1967 cells; 72 hours
Method in brief: as §1

Hs746T = Hs746T cells (SEM subtype); 72 hours
Method in brief: as §1

MKN1 = MKN1 cells; 72 hours
Method in brief: as §1

SNU484 = SNU484 cells (SEM subtype); 72 hours
Method in brief: as §1

NCC19 = NCC19 cells; 72 hours
Method in brief: as §1

Row | SMILES | Average Area Under the Viability Curve (AUC), AUC norm value (FU97) | Average Area Under the Viability Curve (AUC), AUC norm value (MKN28) | Average Area Under the Viability Curve (AUC), AUC norm value (NCC24) | Average Area Under the Viability Curve (AUC), AUC norm value (NCI_N87) | Average Area Under the Viability Curve (AUC), AUC norm value (SNU719) | Average Area Under the Viability Curve (AUC), AUC norm value (SNU638) | Average Area Under the Viability Curve (AUC), AUC norm value (YCC2) | Average Area Under the Viability Curve (AUC), AUC norm value (NCC20) | Average Area Under the Viability Curve (AUC), AUC norm value (SNU16) | Average Area Under the Viability Curve (AUC), AUC norm value (SNU216) | Average Area Under the Viability Curve (AUC), AUC norm value (SNU1750) | Average Area Under the Viability Curve (AUC), AUC norm value (SNU601) | Average Area Under the Viability Curve (AUC), AUC norm value (NCC59) | Average Area Under the Viability Curve (AUC), AUC norm value (YCC3) | Average Area Under the Viability Curve (AUC), AUC norm value (SNU620) | Average Area Under the Viability Curve (AUC), AUC norm value (OCUM1) | Average Area Under the Viability Curve (AUC), AUC norm value (MKN74) | Average Area Under the Viability Curve (AUC), AUC norm value (YCC11) | Average Area Under the Viability Curve (AUC), AUC norm value (SK4) | Average Area Under the Viability Curve (AUC), AUC norm value (KATO3) | further results
1 | CC[C@@]1(O)C(=O)OCc2c1cc1n(c2=O)Cc2cc3ccccc3nc2-1 [Camptothecin] | 1.097 | 0.3881 | 0.5273 | 0.7261 | 3.079 | −0.9365 | 0 | −1.829 | −1.529 | 1.3094 | 0.02348 | −1.853 | 1.208 | 1.3493 | −1.867 | −0.5033 | −0.08807 | −0.5718 | −0.8823 | 4.769 | Average Area Under the Viability Curve (AUC), AUC norm value (SNU1): −2.182; Average Area Under the Viability Curve (AUC), AUC norm value (MKN45): 0.1203; Average Area Under the Viability Curve (AUC), AUC norm value (AGS): −1.989; Average Area Under the Viability Curve (AUC), AUC norm value (SNU668): −1.202; Average Area Under the Viability Curve (AUC), AUC norm value (SNU1967): −1.86; Average Area Under the Viability Curve (AUC), AUC norm value (Hs746T): 0.3026; Average Area Under the Viability Curve (AUC), AUC norm value (MKN1): −0.642; Average Area Under the Viability Curve (AUC), AUC norm value (SNU484): 1.047; Average Area Under the Viability Curve (AUC), AUC norm value (NCC19): 0.9854
2 | CC(C)C[C@H](NC(=O)[C@H](CCc1ccccc1)NC(=O)CN1CCOCC1)C(=O)N[C@@H](Cc1ccccc1)C(=O)N[C@@H](CC(C)C)C(=O)[C@@]1(C)CO1 [Carfilzomib (PR-171), Carfilzomib] | −0.1687 | −0.7065 | −0.8995 | 0.5098 | 0.5178 | 0.1464 | 0.8534 | −2.002 | −1.3183 | 0 | −0.9787 | 1.489 | 0.8592 | 1.747 | −0.4242 | 1.245 | −0.3162 | −0.7607 | −0.2415 | 0.1004 | Average Area Under the Viability Curve (AUC), AUC norm value (SNU1): 0.1391; Average Area Under the Viability Curve (AUC), AUC norm value (MKN45): 0.5553; Average Area Under the Viability Curve (AUC), AUC norm value (AGS): −0.131; Average Area Under the Viability Curve (AUC), AUC norm value (SNU668): 1.899; Average Area Under the Viability Curve (AUC), AUC norm value (SNU1967): −0.5586; Average Area Under the Viability Curve (AUC), AUC norm value (Hs746T): −1.399; Average Area Under the Viability Curve (AUC), AUC norm value (MKN1): 0.1771; Average Area Under the Viability Curve (AUC), AUC norm value (SNU484): −0.7602; Average Area Under the Viability Curve (AUC), AUC norm value (NCC19): 1.562
3 | C/C=C(\C)C(=O)N[C@@H](c1ccccc1)[C@@H](O)C(=O)O[C@H]1C[C@@]2(O)[C@@H](OC(=O)c3ccccc3)[C@@H]3[C@]4(OC(C)=O)CO[C@@H]4C[C@H](O)[C@@]3(C)C(=O)[C@H](OC(C)=O)C(=C1C)C2(C)C [Cephalomannine] | 0.4107 | −1.697 | −0.7716 | −1.26 | 4.893 | −0.03958 | 0.3838 | −0.5011 | −1.737 | 1.8612 | 1.009 | 0.2225 | 2.734 | 2.809 | −2.403 | 1.3887 | 0.3528 | −1.013 | −1.144 | 4.179 | Average Area Under the Viability Curve (AUC), AUC norm value (SNU1): −2.056; Average Area Under the Viability Curve (AUC), AUC norm value (MKN45): 0; Average Area Under the Viability Curve (AUC), AUC norm value (AGS): −2.055; Average Area Under the Viability Curve (AUC), AUC norm value (SNU668): −0.1911; Average Area Under the Viability Curve (AUC), AUC norm value (SNU1967): 0.6525; Average Area Under the Viability Curve (AUC), AUC norm value (Hs746T): 0.449; Average Area Under the Viability Curve (AUC), AUC norm value (MKN1): −1.486; Average Area Under the Viability Curve (AUC), AUC norm value (SNU484): −0.7051; Average Area Under the Viability Curve (AUC), AUC norm value (NCC19): 1.7094
